*1 amine or outer side, *2 acyl side, *3 side chain or, on linkers, in order; H or OH if unused. Where a SMILES comes first, the peptide text is derived from it. Bridges are numbered along the chain shown (N, C = ends). Roman numbers before positions name the chains, in order. [ ]: non-standard residue; d: D form. Actinocin(9to1) = Cc1c2oc3c(C)ccc(C(=O)[*:1])c3nc-2c(C(=O)[*:2])c(N)c1=O; NMeV = CN[C@H](C(=O)O)C(C)C; Sar = CNCC(=O)O
Legend:
[1] = biological target: T1, E. coli B nitroreductase (Escherichia coli, UniProt P38489); assay: Enzyme kinetic and inhibition studies; format: biochemical
T1 construct: endogenous in cells; host or cells: E. coli B cell paste; endogenous enzyme purified by Phenyl-Sepharose and Q-Sepharose chromatography, not recombinant
Protocol: Protein concentration was determined using the a conventional protein assay (Bio-Rad) calibrated against bovine serum albumin.

[2] = biological target: T2, E. coli nitroreductase (Escherichia coli, UniProt P38489); assay: Substrate specificity: relative rate of NADH oxidation by HPLC (Table 5); format: biochemical; details: relative to CB 1954; 37° C. in air, NADH 500 μM, substrate 100 μM
T2 construct: endogenous in cells; host or cells: E. coli B cell paste; endogenous enzyme purified by Phenyl-Sepharose and Q-Sepharose chromatography, not recombinant
Protocol: The ability of the E. coli nitroreductase of the invention to reduce nitro-compounds other than CB 1954 was determined by HPLC by following the decrease in the peak area of NADH resulting from its oxidation. The experiments were carried out as above but the aliquots were injected onto a Partisphere SAX (110×4.7 mm) HPLC column and eluted isocratically (1 ml/min) with 75 mM NaH2 PO4.
The relative rates of reduction of various nitrobenzamides and
nitrobenzenes with E. coli nitroreductase enzyme. Reduction
rates were determined by the resulting oxidation of NADH. All
reactions were carried out at 37° C. in air, with NADH (500
electron donor, at an initial substrate concentration of 100 μM.

[3] = biological target: T2, E. coli nitroreductase; assay: % drug reduction in the V79 incubations, remaining prodrug by HPLC (Table 8); format: biochemical
Protocol: (§1) Generation of cytotoxicity by the action of the E. coli nitroreductase of Example 1 upon the prodrugs 4-[bis(2-chloroethyl)amino]phenylcarbamic acid 4'-nitrobenzyl ester (I where R^1 NH2 =III) and N-4-nitrobenzyloxy-carbonyl-actinomycin D (V) are shown in Table 8.
(§2) The effect of enzyme-activated prodrugs on the survival of V79
(§3) cells. 1 ml volumes of V79 cells (2 × 10^5 /ml) were incubated
(§4) with prodrug, 500 μM NADH, and 10 μg/ml enzyme. After a 2 hour
(§5) incubation at 37° C., the cells were harvested and assayed for
(§6) their colony forming ability, and the supernatant assayed for
(§7) the concentration of remaining prodrug by HPLC.

[4] = test system: MAWI cells; assay: Survival (colony forming ability) of MAWI cells with enzyme-activated prodrugs (Table 7); format: cell-based, human
Protocol: (§8) The effect of enzyme-activated prodrugs on the survival of MAWI
(§9) cells. 1 ml volumes of MAWI cells (2 × 10^5 /ml) were
(§10) with 50 μM prodrug, 500 μM NADH, and 10 μg/ml the enzyme of
(§11) Example 1. After a 2 hour incubation at 37° C., the cells were
(§12) harvested and assayed for their colony forming ability, and the
(§13) supernatant assayed for the concentration of remaining prodrug

[5] = test system: V79 cells; assay: Survival (colony forming ability) of V79 cells with enzyme-activated prodrugs (Table 8); format: cell-based
Protocol: as §1, §2, §3, §4, §5, §6, §7

[6] = biological target: T1, E. coli B nitroreductase; assay: % drug reduction in the MAWI incubations, remaining prodrug by HPLC (Table 7); format: biochemical
Protocol: as §8, §9, §10, §11, §12, §13

[7] = In vivo toxicity of prodrug in mice; details: for deaths: dose 10 mg/kg i.p., groups of 3 mice, 10 mg/kg
Protocol: The actinomycin D prodrug (AMDPD) of formula V was tested for toxicity in mice. Groups of 3 mice were given 1, 10 or 100 mg/kg body weight i.p. of AMPD, and two further groups of 3 mice were given 1 and 10 mg/kg body weight i.p. of actinomycin D (AMD) dissolved in arachis oil. A further group of 3 mice were untreated, and a final group of 3 mice were given arachis oil i.p. only.
The body weight of the mice were monitored over 9 days. All mice treated with 10 mg/kg of AMD were dead by day 1. […] In practice, the toxicity of AMDPD is likely to be even lower, since the preparation of AMDPD used contains about 1% unconverted AMD.

[8] = test system: NC(=O)c1cc(N2CC2)c([N+](=O)[O-])cc1[N+](=O)[O-]; assay: Enzyme kinetic and inhibition studies; format: biochemical, E. coli B
[9] = test system: CC1=CC(=O)c2ccccc2C1=O; assay: Enzyme kinetic and inhibition studies; format: biochemical, E. coli B
[10] = substrate: CC1=CC(=O)c2ccccc2C1=O; assay: Enzyme kinetic studies; format: biochemical
Protocol: (§14) Quinone reductase activities were assayed by a spectrophotometric method using menadione as a substrate and cytochrome c as a terminal electron acceptor as described in Knox et al, Biochem. Pharmacol., 37, 4671-4677, 1988. Initial rates of reaction were determined by linear regression analysis (r>0.995) and kinetic parameters determined from the resulting plots as described by Roberts et al, Biochem. Pharmacol. 38, 4137-4143, 1989. Protein concentration was determined using the a conventional protein assay (Bio-Rad) calibrated against bovine serum albumin.
(§15) Kinetic parameters for the E. coli nitroreductase and Walker NAD(P)H, dehydrogenase (quinone) EC. […] The absolute rates of reduction of CB 1954 (i.e. under saturating conditions) by the two enzymes is their kcat values and this is 90 fold higher for the E. coli nitroreductase.

[11] = substrate: NC(=O)c1cc(N2CC2)c([N+](=O)[O-])cc1[N+](=O)[O-]; assay: Enzyme kinetic studies; format: biochemical
Protocol: as §14, §15

[12] = test system: V79 cells; assay: Survival (colony-forming ability) of V79 cells treated with CB 1954 in the presence of E. coli B nitroreductase (Table 4); format: cell-based, Hamster; details: nitroreductase 2 μg/ml
Protocol: E. coli B nitroreductase. All treatments were for 2 hours at 37°
cells were then plated out for their resulting colony-forming ability.
nitroreductase concentration was 2 μg/ml and NADH was used as a […]

[13] = NR + prodrug + NADH, prodrug concentration not given
[14] = NR 10 μg/ml + 50 μM prodrug + 500 μM NADH

In the case of `CC1=CC(=O)c2ccccc2C1=O` [MENADIONE, menadione], the “Km of nitroreductase for menadione higher than Walker enzyme” value [1] is reported as 60 fold.

With `NC(=O)NN=Cc1ccc([N+](=O)[O-])o1` [5-nitro-2-furaldehydesemicarbazone] the “RELATIVE RATE OF NADH OXIDATION NR” value [2] was 3.6.

In the case of `NC(=O)c1cc([N+](=O)[O-])cc([N+](=O)[O-])c1` [3,5-dinitrobenzamide], the “RELATIVE RATE OF NADH OXIDATION NR” value [2] is reported as 75.5.

For `NC(=O)c1ccc([N+](=O)[O-])cc1` [4-nitrobenzamide], the “RELATIVE RATE OF NADH OXIDATION NR” value [2] was 5.1.

In the case of `CN(C)C(=O)c1cc(N2CC2)c([N+](=O)[O-])cc1[N+](=O)[O-]` [CB 10-107], the “% DRUG REDUCTION” value [3, 13] is reported as 45%, the “% SURVIVAL” value ([4]; 50 μM prodrug alone, 2 hour 37° C.) is reported as 85.6% and the “% SURVIVAL” value ([4]; NADH + prodrug, no enzyme) is reported as 87.9%. For the same molecule, the “% SURVIVAL” value [4, 14] was 5.0%, the “% SURVIVAL” value [5, 13] was 5.0% and the “% DRUG REDUCTION” value ([6]; 50 μM prodrug alone) was under 1.0%. For the same molecule, the “% DRUG REDUCTION” value ([6]; NADH + prodrug, no enzyme) was under 1.0% and the “% DRUG REDUCTION” value [6, 14] was 45%.

For `O=C(Nc1ccc(N(CCCl)CCCl)cc1)OCc1ccc([N+](=O)[O-])cc1` [I where R^1 NH2 = III, 4-[Bis(2-chloroethyl)amino]phenylcarbamic acid 4'-nitrobenzyl ester], the “% DRUG REDUCTION” value ([3]; 50 μM prodrug alone) was under 1.0%, the “% DRUG REDUCTION” value [3, 14] was 30% and the “% SURVIVAL” value ([5]; 50 μM prodrug alone) was 27.1%.

With `NC(=O)c1cc(NCCO)c([N+](=O)[O-])cc1[N+](=O)[O-]` [2,4-dinitro-5-(2-hydroxyethylamino)benzamide] the “RELATIVE RATE OF NADH OXIDATION NR” value [2] was 0.04.

With `NC(=O)c1ccccc1[N+](=O)[O-]` [2-nitrobenzamide] the “RELATIVE RATE OF NADH OXIDATION NR” value [2] was 0.06.

With `NC(=O)c1cc(N2CC2)c([N+](=O)[O-])cc1N` [2-amino-5-(aziridin-1-yl)-4-nitrobenzamide] the “RELATIVE RATE OF NADH OXIDATION NR” value [2] was under 0.01.

With `Cc1c2oc3c(C)ccc(C(=O)N[C@@H]4C(=O)N[C@H](C(C)C)C(=O)N5CCC[C@H]5C(=O)N(C)CC(=O)N(C)[C@@H](C(C)C)C(=O)O[C@@H]4C)c3nc-2c(C(=O)N[C@@H]2C(=O)N[C@H](C(C)C)C(=O)N3CCC[C@H]3C(=O)N(C)CC(=O)N(C)[C@@H](C(C)C)C(=O)O[C@@H]2C)c(N)c1=O` [AMD, actinomycin D] (I: T[dV]P[Sar][NMeV] / II: T[dV]P[Sar][NMeV]; ester I:1-I:C, II:1-II:C; linker I:N-II:N via Actinocin(9to1)) the “Weight as % of Day 0, Day 2” value ([7]; dose 1.0 mg/kg i.p., mice) was 98.6%, the “Weight as % of Day 0, Day 3” value ([7]; dose 1.0 mg/kg i.p., mice) was 95% and the “Weight as % of Day 0, Day 7” value ([7]; dose 1.0 mg/kg i.p., mice) was 101.6%. The “Weight as % of Day 0, Day 9” value ([7]; dose 1.0 mg/kg i.p., mice) was 103%, the deaths [7] was “dead by day 1” and the deaths ([7]; listed as Active Drug) was “All dead on day 1”.

With `NC(=O)c1cccc([N+](=O)[O-])c1` [3-nitrobenzamide] the “RELATIVE RATE OF NADH OXIDATION NR” value [2] was 1.8.

With `O=[N+]([O-])c1ccc(O)c([N+](=O)[O-])c1` [2,4-dinitrophenol] the “RELATIVE RATE OF NADH OXIDATION NR” value [2] was under 0.01.

Molecule “E. coli B nitroreductase (Escherichia coli K-12)” has a Km [8] of 862 ± 145 µM and a Km [9] of 80 µM.

In the case of `NC(=O)c1cc(Cl)c([N+](=O)[O-])cc1[N+](=O)[O-]` [5-chloro-2,4-dinitrobenzamide], the “RELATIVE RATE OF NADH OXIDATION NR” value [2] is reported as 22.4.

B1: Walker NAD(P)H dehydrogenase (quinone) EC. 1.6.99.2 (Rattus norvegicus) (protein)
chain: AVRRALIVLAHAERTSFNYAMKEAAVEALKKKGWEVVESDLYAMNFNPLISRNDITGEPKDSENFQYPVESSLAYKEGRLSPDIVAEQKKLEAADLVIFQFPLYWFGVPAILKGWFERVLVAGFAYTYATMYDKGPFQNKKTLLSITTGGSGSMYSLQGVHGDMNVILWPIQSGILRFCGFQVLEPQLVYSIGHTPPDARVQVLEGWKKRLETVWEESPLYFAPSSLFDLNFQAGFLLKKEVQEEQKKNKFGLSVGHHLGKSIPADNQIKARK
notes: the enzyme isolated from the Walker tumour, EC.1.6.99.2; from tissue; host or cells: Walker tumour (Walker cell)
Molecule B1 has a Km [10] of 1.3 µM and a Km [11] of 826 ± 46 µM.

B2: Nitroreductase (NR): flavoprotein nitroreductase isolated from E. coli B, molecular weight 24 kDa, FMN coenzyme (protein, UniProt P38489 1-217, looked up)
Oxygen-insensitive NAD(P)H …: MDIISVALKRHSTKAFDASKKLTPEQAEQIKTLLQYSPSSTNSQPWHFIVASTEEGKARVAKSAAGNYVFNERKMLDASHVVVFCAKTAMDDVWLKLVVDQEDADGRFATPEAKAANDKGRKFFADMHRKDLHDDAEWMAKQVYLNVGNFLLGVAALGLDAVPIEGFDAAILDAEFGLKEKGYTSLVVVPVGHHSVEDFNATLPKSRLPQNITLTEV
With B2 the “% SURVIVAL” value [12] was 94%.
